# Source: patent US11884675B2, “Heterocyclic compounds as triggering receptor expressed on myeloid cells 2 agonists and methods of use” (AMGEN INC., priority 2020, dated 2024)
# Assays:
# [1] = target: T1, hTREM2 (Homo sapiens, UniProt Q9NZC2); test: TREM2 agonist potency by Syk phosphorylation (AlphaLisa) in HEK293T-hTREM2 cells, used for Examples 306-429; type: cell-based; design: expressed in transfected cells; host or cells: HEK293T (HEK293T-hTREM2 cells); conditions: HEK293 Cells
# Method: In vitro Measurement of Triggering Receptor Expressed on Myeloid Cells 2 activity using cellular phosphorylation of Spleen Tyrosine Kinase (“Syk”) Assays used for Examples 306-429
# Measurement of TREM2 agonist potency was done using a HEK cell line expressing human TREM2 and DAP12 (HEK293T-hTREM2 cells). Binding of small molecules to, and activation of, TREM2 increases the phosphorylation of Syk. The resultant levels of Syk phosphorylation were measured using a commercial AlphaLisa reagent kit. To perform the assay, HEK-hTREM2 cells were plated at 14,000 cells per well in a 384 well plate, in 25 μL, of complete growth media and incubated at 37° C., 5% CO2 for 20-24 hours. Prior to the assay, test compounds were diluted in the 384 well plates in assay buffer and allowed to equilibrate for 30 minutes. Growth media was removed from cell plates by inversion on blotting paper, and 25 μL of test compounds in assay buffer was added to cells. Cells were incubated for 45 minutes at room temperature. After 45 minutes, assay buffer was removed and 10 μL of lysis buffer was added. Plates were shaken for 20 minutes at 350 RPM at room temperature. After complete lysis, AlphaLisa reagents were added to the lysate, and fluourescence intensity was measured using a Perkin Elmer Envision plate reader. Intensities were used to generate a standard curve, and % activation was calculated. Curve fitting was performed using Prism v9 software, log(agonist) vs response-variable slope (four parameters), and EC50s were calculated from the curve fit.
# The results presented in Table 20 have been generated with the in vitro assay described above for Examples 306-429. This assay may be used to test any of the compounds described herein to assess and characterize a compound's ability to act as an agonist of TREM2.
# [2] = target: T1, hTREM2; test: TREM2 activity by cellular Syk phosphorylation (AlphaScreen/AlphaLISA) in TREM2/DAP12-HEK cells, used for Examples 1-305; type: cell-based; design: expressed in transfected cells; conditions: HEK293 Cells
# In short: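 Phospho-Syk (Tyr525/526) over total Syk quantified by AlphaScreen in lysates of cloned TREM2/DAP12-overexpressing HEK293 cells after 45 min compound treatment at room temperature, 1% final DMSO. Values expressed relative to 100 nM anti-TREM2 antibody (positive) and isotype IgG (negative) controls; curves fitted with 4-parameter logistic model.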
# T1 sequence (Q9NZC2 19-230): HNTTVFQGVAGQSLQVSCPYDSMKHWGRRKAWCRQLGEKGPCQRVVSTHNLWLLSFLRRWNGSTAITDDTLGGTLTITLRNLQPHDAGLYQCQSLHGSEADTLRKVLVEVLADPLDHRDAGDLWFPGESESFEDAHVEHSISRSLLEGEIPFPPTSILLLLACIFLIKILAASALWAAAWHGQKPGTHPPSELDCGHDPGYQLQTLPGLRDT
# T1 sequence (O43914 22-113 partner): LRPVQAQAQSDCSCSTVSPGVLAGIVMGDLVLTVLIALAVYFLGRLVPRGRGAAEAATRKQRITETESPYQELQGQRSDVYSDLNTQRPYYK
EC50 [1],EC50 [2],hTREM2 Emax [2],SMILES
≤ 50 nM,,,"Cc1nc2cc([C@H]3CCO[C@@H](c4cnn(C5CC5)c4)C3)nc(C34CC(C(F)(F)F)(C3)C4)c2nc1C (mixture of isomers) [Example 392, 2,3-dimethyl-7-[2-(1-cyclopropylpyrazol-4-yl)tetrahydropyran-4-yl]-5-[3-(trifluoromethyl)-1-bicyclo[1.1.1]pentanyl]pyrido[3,4-b]pyrazine]"
50 to 500 nM,,,Cc1cc([C@H]2C[C@H](c3cc4nc(C)c(C)nc4c(-c4ccc(C(F)(F)F)nc4)n3)CCO2)ccn1 (racemic) [Example 306]
50 to 500 nM,,,"Cc1cc([C@H]2C[C@@H](c3cc4nc(C)cnc4c(-c4ccc(F)cc4F)n3)CCO2)ccn1 (racemic) [Example 307, 5-(2,4-difluorophenyl)-2-methyl-7-(2-(2-methylpyridin-4-yl)tetrahydro-2H-pyran-4-yl)pyrido[3,4-b]pyrazine]"
50 to 500 nM,,,"Cc1cc([C@H]2C[C@@H](c3cc4nc(C)cnc4c(-c4ccc(C(F)(F)F)nc4)n3)CCO2)ccn1 (racemic) [Example 308, 2-methyl-7-(2-(2-methylpyridin-4-yl)tetrahydro-2H-pyran-4-yl)-5-(6-(trifluoromethyl)pyridin-3-yl)pyrido[3,4-b]pyrazine]"
50 to 500 nM,,,"Cc1cc([C@H]2C[C@@H](c3nc(-c4ccc(C(F)(F)F)nc4)c4nc(C)c(C)nc4n3)CCO2)ccn1 (racemic) [Example 309, 6,7-dimethyl-2-(2-(2-methylpyridin-4-yl)tetrahydro-2H-pyran-4-yl)-4-(6-(trifluoromethyl)pyridin-3-yl)pteridine]"
50 to 500 nM,,,"Cc1cc([C@H]2C[C@@H](c3cc4nc(C)cnc4c(-c4ccc(Cl)cc4F)n3)CCO2)ccn1 (racemic) [Example 310, 5-(4-chloro-2-fluorophenyl)-2-methyl-7-(2-(2-methylpyridin-4-yl)tetrahydro-2H-pyran-4-yl)pyrido[3,4-b]pyrazine]"
≤ 50 nM,,,"COc1cc(C2CN(c3nc4nc(C)c(C)nc4c([C@]45C[C@](C(F)(F)F)(C4)C5)n3)CCO2)ccn1 (mixture of isomers) [Example 318, 4-(6,7-dimethyl-4-(3-(trifluoromethyl)bicyclo[1.1.1]pentan-1-yl)pteridin-2-yl)-2-(2-methoxypyridin-4-yl)morpholine]"
,500 to 3000 nM,+++ (Emax>150 and ≤250),"Cc1nc2nc(N3CCO[C@@H](c4cnn(C)c4)C3)nc(-c3ccc(F)cn3)c2nc1C [Example 292, (S)-4-(4-(5-fluoropyridin-2-yl)-6,7-dimethylpteridin-2-yl)-2-(1-methyl-1H-pyrazol-4-yl)morpholine]"
,,+++ (Emax>150 and ≤250),"Cc1cc([C@H]2CN(c3nc(-c4ccc(C(F)(F)F)nc4)c4nc(C)c(C)nc4n3)CCO2)ccn1 [Example 293, (S)-4-(6,7-dimethyl-4-(6-(trifluoromethyl)pyridin-3-yl)pteridin-2-yl)-2-(2-methylpyridin-4-yl)morpholine]"
,500 to 3000 nM,+++ (Emax>150 and ≤250),"Cc1ncc([C@H]2CN(c3nc(-c4ccc(C(F)(F)F)nc4)c4nc(C)c(C)nc4n3)CCO2)cn1 [Example 294, (S)-4-(6,7-dimethyl-4-(6-(trifluoromethyl)pyridin-3-yl)pteridin-2-yl)-2-(2-methylpyrimidin-5-yl)morpholine]"
,≤ 50 nM,+++ (Emax>150 and ≤250),"Cc1ncc([C@@H]2CN(c3nc(-c4ccc(C(F)(F)F)nc4)c4nc(C)c(C)nc4n3)CCO2)cn1 [Example 295, (R)-4-(6,7-dimethyl-4-(6-(trifluoromethyl)pyridin-3-yl)pteridin-2-yl)-2-(2-methylpyrimidin-5-yl)morpholine]"
,3000 to 100000 nM,,"Cc1nc2cc([C@H]3CCO[C@@H](c4cnn(C5CC5)c4)C3)nc(-c3ccc(Cl)cc3F)c2nc1C [Example 296, 5-(4-chloro-2-fluorophenyl)-7-((2R,4S)-2-(1-cyclopropyl-1H-pyrazol-4-yl)tetrahydro-2H-pyran-4-yl)-2,3-dimethylpyrido[3,4-b]pyrazine]"
,3000 to 100000 nM,,"Cc1nc2cc([C@@H]3CCO[C@H](c4cnn(C5CC5)c4)C3)nc(-c3ccc(Cl)cc3F)c2nc1C [Example 297, 5-(4-chloro-2-fluorophenyl)-7-((2S,4R)-2-(1-cyclopropyl-1H-pyrazol-4-yl)tetrahydro-2H-pyran-4-yl)-2,3-dimethylpyrido[3,4-b]pyrazine]"
,≤ 50 nM,+++ (Emax>150 and ≤250),"Cc1nc2nc(N3CCO[C@@H](c4cnn(C5CC5)c4)C3)nc(-c3ccc(C(F)(F)F)nc3)c2nc1C [Example 298, (S)-2-(1-cyclopropyl-1H-pyrazol-4-yl)-4-(6,7-dimethyl-4-(6-(trifluoromethyl)pyridin-3-yl)pteridin-2-yl)morpholine]"
,≤ 50 nM,+++ (Emax>150 and ≤250),"Cc1cc([C@H]2CN(c3nc(-c4ccc(C(F)(F)F)nc4)c4nc(C)c(C)nc4n3)CCO2)cnn1 [Example 299, (S)-4-(6,7-dimethyl-4-(6-(trifluoromethyl)pyridin-3-yl)pteridin-2-yl)-2-(6-methylpyridazin-4-yl)morpholine]"
,50 to 500 nM,+++ (Emax>150 and ≤250),"Cc1nc2nc([C@H]3CCO[C@@H](c4cnn(C5CC5)c4)C3)nc(-c3ccc(C(F)(F)F)nc3)c2nc1C [Example 300, 2-((2R,4S)-2-(1-cyclopropyl-1H-pyrazol-4-yl)tetrahydro-2H-pyran-4-yl)-6,7-dimethyl-4-(6-(trifluoromethyl)pyridin-3-yl)pteridine]"
,≤ 50 nM,+++ (Emax>150 and ≤250),"Cc1nc2nc([C@@H]3CCO[C@H](c4cnn(C5CC5)c4)C3)nc(-c3ccc(C(F)(F)F)nc3)c2nc1C [Example 301, 2-((2S,4R)-2-(1-cyclopropyl-1H-pyrazol-4-yl)tetrahydro-2H-pyran-4-yl)-6,7-dimethyl-4-(6-(trifluoromethyl)pyridin-3-yl)pteridine]"
,50 to 500 nM,+ (Emax>45 and ≤100),"Cc1nc2nc(N3CCO[C@@H](c4cnn(C)c4)C3)nc([C@H]3CCC(C)(C)C3)c2nc1C [Example 302, (S)-4-(4-((S)-3,3-dimethylcyclopentyl)-6,7-dimethylpteridin-2-yl)-2-(1-methyl-1H-pyrazol-4-yl)morpholine]"
,50 to 500 nM,++ (Emax>100 and ≤150),"Cc1nc2nc(N3CCO[C@@H](c4cnn(C)c4)C3)nc([C@@H]3CCC(C)(C)C3)c2nc1C [Example 303, (S)-4-(4-((R)-3,3-dimethylcyclopentyl)-6,7-dimethylpteridin-2-yl)-2-(1-methyl-1H-pyrazol-4-yl)morpholine]"
,500 to 3000 nM,+++ (Emax>150 and ≤250),"CN1Cc2c(-c3ccc(Cl)cc3F)cc(N3CCO[C@H](c4cnn(C)c4)C3)nc2C1=O [Example 304, (R)-4-(4-chloro-2-fluorophenyl)-6-methyl-2-(2-(1-methyl-1H-pyrazol-4-yl)morpholino)-5,6-dihydro-7H-pyrrolo [3,4-b]pyridin-7-one]"
,50 to 500 nM,+++ (Emax>150 and ≤250),"Cc1nc2nc([C@H]3CCO[C@@H](c4cnn(C5CC5)c4)C3)nc(-c3ccc(F)cc3F)c2nc1C [Example 305, 2-((2R,4S)-2-(1-cyclopropyl-1H-pyrazol-4-yl)tetrahydro-2H-pyran-4-yl)-4-(2,4-difluorophenyl)-6,7-dimethylpteridine]"
